Experimental data published in patent US11850254B2, “Tryptamine compositions for enhancing neurite outgrowth” (TURTLE BEAR HOLDINGS, LLC, priority 2019, dated 2023).
Entries after “also recorded” stand apart in the source; their conditions may differ. Where two headings read alike, the source gives them in different places.

Legend:
[1] = biological target: 5-HT2A receptor (Homo sapiens, UniProt P28223); details: cited from earlier work
[2] = system: neurogenesis; details: Ly et al. 2018; cited from earlier work
[3] = system: human U87 cells; details: Zhang et al. 2020; cited from earlier work
[4] = system: humans; details: cited from earlier work
[5] = system: PC12 cells treated with conditioned media from 1321N1 human astrocytoma cells; assay: Neurite outgrowth of PC12 cells treated with conditioned media from 1321N1 cells; assay type: cell-based, rat; details: conditioned media from treated 1321N1 cells; FIG. 11, n=3
Source text: Although the assay aimed to explore potential synergistic effects of combining HE and psilocybin analogs, this was not clearly observed. […] 1321N1 human brain astrocytoma cells are known to excrete neurologically beneficial compounds when stimulated with neurotrophic compounds and fungal extracts including lion's mane (Mori et al., Biological and Pharmaceutical Bulletin, 9: 1727-1732 (2008)). While some fungi have well established mechanisms by which they benefit neurological health, little is known about the role of psilocybin analogs specifically. Generally following the protocol of Mori et al., 2008, 1321N1 human astrocytoma cells were treated with psilocybin analogs, and conditioned media was collected and applied to differentiated rat pheochromocytoma PC12 cells to determine the resulting impact on neurite outgrowth.

[6] = system: nerve growth factor (NGF) protein in human 1321N1 brain cells; assay: ELISA of NGF protein in 1321N1 cells; assay type: cell-based; details: compared to a vehicle control; n=3; p<0.05
Source text: Accordingly, preliminary research has started to reveal the mechanisms by which psilocybin analogs may confer neurotrophic benefits that facilitate neurite outgrowth.
(§1) See Ly et al., “Psychedelics Promote Structural and Functional Neural Plasticity,” Cell Rep.

[7] = system: anti-inflammatory cytokine IL-10 in human 1321N1 brain cells; assay: ELISA of IL-10 in 1321N1 cells; assay type: cell-based
Source text: as §1

[8] = system: cortical neurons from rat embryo; assay: Neurite outgrowth and length in cultured neurons (Neurofit), tubulin immunostaining, High-Content Screening; details: versus vehicle control, at the concentrations tested

Sequence of 5-HT2A receptor (P28223 whole entry): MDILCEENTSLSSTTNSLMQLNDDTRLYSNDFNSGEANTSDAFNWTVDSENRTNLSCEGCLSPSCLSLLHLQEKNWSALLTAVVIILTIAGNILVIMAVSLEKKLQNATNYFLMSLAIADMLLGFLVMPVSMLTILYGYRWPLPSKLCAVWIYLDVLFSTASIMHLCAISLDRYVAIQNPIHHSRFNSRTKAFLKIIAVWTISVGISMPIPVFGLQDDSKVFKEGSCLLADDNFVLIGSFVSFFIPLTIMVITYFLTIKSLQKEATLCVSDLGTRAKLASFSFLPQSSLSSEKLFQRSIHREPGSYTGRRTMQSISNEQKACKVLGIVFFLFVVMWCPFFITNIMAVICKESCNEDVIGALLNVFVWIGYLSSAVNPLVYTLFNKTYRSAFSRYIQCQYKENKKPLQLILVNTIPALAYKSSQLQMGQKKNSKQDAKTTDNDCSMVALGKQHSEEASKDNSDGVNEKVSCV

For `COc1cc(C[C@@H](C)N)c(OC)cc1I` [(R)-2,5-dimethoxy-4-iodoamphetamine], the 5-HT2A receptor activation [1] is listed as “activate the 5-HT2A receptor”.
In the case of `COc1cc(CC(C)N)c(OC)cc1I` (centres unmarked) [DOI, 2,5-dimethoxy-4-iodoamphetamine], the neurogenesis [2] is listed as “promoted neurogenesis”.
For `CCN(CC)C(=O)[C@@H]1C=C2c3cccc4[nH]cc(c34)C[C@H]2N(C)C1` [LSD, N,N-diethyl-D-lysergamide], the neurogenesis [2] is given as “promoted neurogenesis”.
In the case of `CC(=O)O[C@@H]1C[C@@H]2C3=C(C(C)C)CC[C@]3(C)CC[C@@]2(C)[C@@H](O[C@@H]2OC[C@@H](O)[C@H](O)[C@H]2O)C=C1C=O` [P], the inhibition of gliomas [3] is given as “inhibitors of gliomas”.
For `CNCCc1c[nH]c2cccc(OP(=O)(O)O)c12` [baeocystin, 4-phosphoryloxy-N-methyltryptamine], the hallucinogenic effect ([4]; 4 mg consumed, Gartz 1991) is listed as “gentle hallucinogenic experience”, the “potency and psychotropic effects” value ([4]; Gartz 1997) is listed as “roughly akin to psilocybin” and the hallucinogenic effect ([4]; oral consumption of 10 mg and 20 mg) is listed as “did not produce any hallucinogenic effects”. The “neurite outgrowth in PC12 cells” value [5] was “induce neurite outgrowth”.
In the case of `CN(C)CCc1c[nH]c2ccccc12` [dimethyltryptamine, N,N-dimethyltryptamine], the neurogenesis [2] is given as “promoted neurogenesis”.
In the case of `NCCc1c[nH]c2cccc(OP(=O)(O)O)c12` [norbaeocystin, 4-phosphoryloxy-tryptamine], the “neurite outgrowth in PC12 cells” value [5] is reported as “induce neurite outgrowth” and the “expression of NGF protein” value [6] is reported as “increased expression of NGF protein; also recorded: induces the expression; also recorded: induction of NGF protein”.
In the case of `CNCCc1c[nH]c2cccc(O)c12` [norpsilocin, 4-hydroxy-N-methyl-tryptamine], the “expression of the anti-inflammatory cytokine IL-10” value [7] is reported as “induces the expression”, the “neurite outgrowth in PC12 cells” value [5] is reported as “induce neurite outgrowth” and the “neurite outgrowth, in words” value [8] is reported as “did not perform better than vehicle control”.
